This passage reports IC50 results from patent publication US10696692B2, “Amido-benzyl sulfone and sulfoxide derivates” (Forma TM, LLC, priority 2012, dated 2020).

One assay concerns the target NAMPT (Homo sapiens (Human), UniProt P43490). In words: Assay 1: Biochemical Inhibition Assay (NAMPT enzymatic reaction, NMN quantified by mass spectrometry).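 Note: recombinant His-tagged human NAMPT preincubated with compound 15 min, then reacted 30 min at rt with 1 µM NAM, 100 µM PRPP, 2.5 mM ATP, NMN product read by RapidFire MS, normalized to L-Cystathionine internal standard.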 The conditions noted are these: read-out: Biochemical (IC50).
Another assay deals with A2780 cells. In words: Assay 2: In-Vitro Cell Proliferation Assay (A2780 cells, SRB readout, 72 hours).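 Note: viable cells counted via sulforhodamine B staining, absorbance at 570 nm, after 72 h exposure at 37 °C, DMSO 0.1% as control, media-only background subtracted.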 The format is cell-based. The conditions noted are these: Homo sapiens, A2780, 72 h, A2780 cells, 72 hours, SRB; read-out: Cell Proliferation (IC50).

NAMPT, sequence (P43490 whole entry): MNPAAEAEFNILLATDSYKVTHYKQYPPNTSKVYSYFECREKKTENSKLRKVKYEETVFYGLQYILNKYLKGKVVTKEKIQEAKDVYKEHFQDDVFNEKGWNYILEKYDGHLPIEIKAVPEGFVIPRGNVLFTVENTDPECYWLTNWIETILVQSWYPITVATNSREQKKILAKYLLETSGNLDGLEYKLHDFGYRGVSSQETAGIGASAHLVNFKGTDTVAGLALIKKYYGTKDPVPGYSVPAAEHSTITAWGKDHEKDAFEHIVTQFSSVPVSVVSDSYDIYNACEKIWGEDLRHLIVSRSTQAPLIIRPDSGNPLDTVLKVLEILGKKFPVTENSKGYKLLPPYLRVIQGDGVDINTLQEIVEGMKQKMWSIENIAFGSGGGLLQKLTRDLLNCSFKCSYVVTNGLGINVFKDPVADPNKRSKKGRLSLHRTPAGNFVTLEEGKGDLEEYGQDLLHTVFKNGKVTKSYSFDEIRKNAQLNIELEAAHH

In the case of `O=C(NCc1ccc(S(=O)(=O)N2CCC(F)(F)C2)cc1)c1ccc2nccn2c1` [Example 99, Imidazo[1,2-a]pyridine-6-carboxylic acid 4-(3,3-difluoro-pyrrolidine-1-sulfonyl)-benzylamide], the IC50 was 15.8 nM on NAMPT and 7.7 nM with A2780 cells.
Consider `CC(=O)N1CCCN(S(=O)(=O)c2ccc(CNC(=O)c3ccc4nccn4c3)cc2)CC1` [Example 100, Imidazo[1,2-a]pyridine-6-carboxylic acid 4-(4-acetyl-[1,4]diazepane-1-suIfonyl)-benzylamide], for which the IC50 at NAMPT worked out at 25.7 nM; in the assay with A2780 cells, 25.4 nM.
For `CC(C)(C)OC(=O)N1CCC2(CCN(S(=O)(=O)c3ccc(CNC(=O)c4ccc5nccn5c4)cc3)CC2)C1` [Example 103, 8-(4-{[(Imidazo[1,2-a]pyridine-6-carbonyl)-amino]-methyl}-benzenesulfonyl)-2,8-diaza-spiro[4.5]decane-2-carboxylic acid tert-butyl ester] the same measures were 29.5 nM and 39.4 nM.
For `N#CCCN1CCN(S(=O)(=O)c2ccc(CNC(=O)c3ccc4nccn4c3)cc2)CC1` [Example 104, Imidazo[1,2-a]pyridine-6-carboxylic acid 4-[4-(2-cyano-ethyl)-piperazine-1-sulfonyl]-benzylamide] the same measures were 26.9 nM and 8.8 nM.
With `CN(C)CCN1CCN(S(=O)(=O)c2ccc(CNC(=O)c3ccc4nccn4c3)cc2)CC1` [Example 105, Imidazo[1,2-a]pyridine-6-carboxylic acid 4-[4-(2-dimethylamino-ethyl)-piperazine-1-sulfonyl]-benzylamide], the figures for the IC50 at NAMPT and in the assay with A2780 cells were 6.8 nM and 9 nM, respectively.
For `O=C(NCc1ccc(S(=O)(=O)N2CCC[C@@H]2CO)cc1)c1ccc2nccn2c1` [Example 106, Imidazo[1,2-a]pyridine-6-carboxylic acid 4-((R)-2-hydroxymethyl-pyrrolidine-1-sulfonyl)-benzylamide] the same measures were 48.6 nM and 57.7 nM.
Consider `O=C(NCc1ccc(S(=O)(=O)N2CCC[C@H]2CO)cc1)c1ccc2nccn2c1` [Example 107, Imidazo[1,2-a]pyridine-6-carboxylic acid 4-((S)-2-hydroxymethyl-pyrrolidine-1-sulfonyl)-benzylamide], for which the IC50 at NAMPT was 23.7 nM; in the assay on A2780 cells, 15.4 nM.
Turning to `CN(C)[C@H]1CCN(S(=O)(=O)c2ccc(CNC(=O)c3ccc4nccn4c3)cc2)C1` [Example 108, Imidazo[1,2-a]pyridine-6-carboxylic acid 4-((S)-3-dimethylamino-pyrrolidine-1-sulfonyl)-benzylamide], the IC50 at NAMPT was found to be 25.6 nM; in the assay on A2780 cells, 5.3 nM.
The matching figures for `CN1CCN(C(=O)C2CCN(S(=O)(=O)c3ccc(CNC(=O)c4ccc5nccn5c4)cc3)CC2)CC1` [Example 109, Imidazo[1,2-a]pyridine-6-carboxylic acid 4-[4-(4-methyl-piperazine-1-carbonyl)-piperidine-1-sulfonyl]-benzylamide]: 2.7 nM and 3.9 nM.
The matching figures for `CN1CCN(C2CCN(S(=O)(=O)c3ccc(CNC(=O)c4ccc5nccn5c4)cc3)CC2)CC1` [Example 110, Imidazo[1,2-a]pyridine-6-carboxylic acid 4-[4-(4-methyl-piperazin-1-yl)-piperidine-1-sulfonyl]-benzylamide]: 3.1 nM and 3.3 nM.
For `O=C(NCc1ccc(S(=O)(=O)N2CCC(F)(F)CC2)cc1)c1ccc2nccn2c1` [Example 112, Imidazo[1,2-a]pyridine-6-carboxylic acid 4-(4,4-difluoro-piperidine-1-sulfonyl)-benzylamide] the same measures were 25.9 nM and 20.5 nM.
Consider `CC(=O)N1CCC(S(=O)(=O)c2ccc(CNC(=O)c3cc4cnccc4[nH]3)cc2)CC1` [Example 113, 1H-Pyrrolo[3,2-c]pyridine-2-carboxylic acid 4-(1-acetyl-piperidine-4-sulfonyl)-benzylamide], for which the figures for the IC50 at NAMPT and in the assay with A2780 cells were 64.2 nM and 44.6 nM, respectively.
Consider `O=C(NCc1ccc(S(=O)(=O)C2CCN(C3COC3)CC2)cc1)c1ccc2nccn2c1` [Example 114, Imidazo[1,2-a]pyridine-6-carboxylic acid 4-(l-oxetan-3-yl-piperidine-4-sulfonyl)-benzylamide], for which the IC50 on NAMPT is 19.4 nM; in the assay on A2780 cells it was 5.6 nM.
With `O=C(NCc1ccc(S(=O)(=O)C2CCN(C3COC3)CC2)cc1)c1cc2cnccc2[nH]1` [Example 115, 1H-Pyrrolo[3,2-c]pyridine-2-carboxylic acid 4-(1-oxetan-3-yl-piperidine-4-sulfonyl)-benzylamide], the results for the IC50 at NAMPT and with A2780 cells were 37.3 nM and 11.5 nM, respectively.
With `O=C(NCc1ccc(S(=O)(=O)N2CCN(C3COC3)CC2)cc1)c1cnc2[nH]ncc2c1` [Example 117, 1H-Pyrazolo[3,4-b]pyridine-5-carboxylic acid 4-(4-oxetan-3-yl-piperazine-1-sulfonyl)-benzylamide], the IC50 came out at 229 nM at NAMPT and 44.5 nM in the assay with A2780 cells.
In the case of `O=C(NCc1ccc(S(=O)(=O)C2CCN(C3COC3)CC2)cc1)c1cnc2nccn2c1` [Example 118, Imidazo[1,2-a]pyrimidine-6-carboxylic acid 4-(1-oxetan-3-yl-piperidine-4-sulfonyl)-benzylamide], the IC50 at NAMPT was determined as 4.1 nM; with A2780 cells, 121 nM.
On to `O=C(NCc1ccc(S(=O)(=O)N2CCN(C3COC3)CC2)cc1)c1cnc2nccn2c1` [Example 119, Imidazo[1,2-a]pyrimidine-6-carboxylic acid 4-(4-oxetan-3-yl-piperazine-1-sulfonyl)-benzylamide], for which the IC50 on NAMPT came out at 4.4 nM; with A2780 cells, 352 nM.
In the case of `O=C(NCc1ccc(S(=O)(=O)C2CCN(C3COC3)CC2)cc1)c1cc2ccncc2s1` [Example 120, Thieno[2,3-c]pyridine-2-carboxylic acid 4-(1-oxetan-3-yl-piperidine-4-sulfonyl)-benzylamide], the IC50 at NAMPT stood at 4.3 nM; in the assay with A2780 cells, 1.5 nM.
For the molecule `CC(C)(C)OC(=O)N1CCC2(CC1)CCN(S(=O)(=O)c1ccc(CNC(=O)c3ccc4nccn4c3)cc1)CC2` [Example 121, 9-(4-{[(Imidazo[1,2-a]pyridine-6-carbonyl)-amino]-methyl}-benzenesulfonyl)-3,9-diaza-spiro[5.5]undecane-3-carboxylic acid tert-butyl ester], the IC50 is 5.8 nM at NAMPT and 1.1 nM in the assay with A2780 cells.
As for `CC(C)(C)OC(=O)N1CCCC2(CCN(S(=O)(=O)c3ccc(CNC(=O)c4ccc5nccn5c4)cc3)CC2)C1` [Example 122, 9-(4-{[(Imidazo[1,2-a]pyridine-6-carbonyl)-amino]-methyl}-benzenesulfonyl)-2,9-diaza-spiro[5.5]undecane-2-carboxylic acid tert-butyl ester], the IC50 is 25.5 nM at NAMPT and 2.6 nM in the assay on A2780 cells.
Turning to `CC(C)(C)OC(=O)N1CCC2(CC1)CN(S(=O)(=O)c1ccc(CNC(=O)c3ccc4nccn4c3)cc1)CCO2` [Example 124, 4-(4-{[(Imidazo[1,2-a]pyridine-6-carbonyl)-amino]-methyl}-benzenesulfonyl)-1-oxa-4,9-diaza-spiro[5.5]undecane-9-carboxylic acid tert-butyl ester], the IC50 at NAMPT was determined as 40.5 nM; in the assay with A2780 cells it was 4.65 nM.
